Legend:
[1] = test system: Zymosan-induzierte Pfotenentzündung bei der Maus; assay: Model 3: zymosan-induced paw inflammation, paw withdrawal latency on thermal stimulation (Hargreaves Test), AUC; type: in vivo; settings: for Statistischer Unterschied gegenüber Vehikel: thermische Hyperalgesie AUC; for AUC Mittelwert [Maß für Hyperalgesie]: thermische Hyperalgesie
Protocol: Parameter: Pfotenwegziehzeit bei thermischer Stimulation der Hinterpfote. Versuchsdurchführung: In Kurzzeitnarkose mit Isofluran wurde dem Versuchstier 25 μl einer Suspension, die 50 mg/ml Zymosan enthielt, in die rechte Hinterpfote injiziert. Dann wurde die […] quantitativ wie folgt bestimmt: Bestimmung der Pfotenwegziehzeit bei thermischer Stimulation (Hargreaves Test; s.o.). Das Versuchstier wurde in […] Versuchstier nach der Erkundungsphase (etwa 5 min) nicht mehr bewegte, wurde […] zu stimulierenden Hinterpfote positioniert und […]. Die […] ab, so dass die Hauttemperatur […] linear […] Pfote […] ab. Die Pfotentemperatur zum Zeitpunkt des Wegziehens ist für das Tier gerade eben unangenehm, […] von thermischer Schmerzschwelle. Kurz vor Zymosan-Injektion und für 7 bis 14 Tage nach Injektion wurde […] an der rechten und linken Hinterpfote bestimmt. Anschließend wurde […] Integral der Fläche, die aus […] und […] Pfote gebildet wurde, bestimmt (AUC, area between the curves, s. Tabellen 5 und 6). Je größer dieser Wert ist, umso […], und je kleiner der Wert bei Tieren, die die Substanz erhalten, desto stärker ist der Therapieerfolg. In einer 7-Tage Studie induzierte die Zymosan Injektion in […], Tab. 5). In den anderen Gruppen wurde die Substanzgabe einen Tag nach Zymosan Injektion, […] schon […]. […] Die […] Studie (7 Tage) ergab, dass die AUC unter Substanzgabe dosisabhängig abnahm. […] In einer parallel […] von Tieren wurde Paracetamol in einer sehr hohen Dosis ebenfalls zweimal am Tag verabreicht. […] Paracetamol (Tab. 5). […] […] Zymosan Injektion und Dosierschema […] zuvor beschriebenen Studie. Einziger Unterschied war, dass die weitere Studie über 14 Tage lief.

[2] = test system: Zymosan-induzierte Pfotenentzündung bei der Ratte; assay: Model 1a: zymosan-induced paw inflammation, paw withdrawal latency on thermal stimulation (Hargreaves Test); type: in vivo
[3] = test system: Zymosan-induzierte Pfotenentzündung bei der Ratte; assay: Model 1b: zymosan-induced paw inflammation, paw withdrawal threshold on mechanical stimulation (von Frey Test); type: in vivo
[4] = test system: Kaolin/Carrageenan induzierte Kniegelenksentzündung bei der Ratte; assay: Model 2: kaolin/carrageenan-induced knee joint inflammation, responses of spinal neurons to pressure on the knee; type: in vivo
Description: Modell: Zymosan-induzierte Pfotenentzündung bei der Ratte; Parameter: Pfotenwegziehzeit oder Pfotenwegziehschwelle bei thermischer oder mechanischer Stimulation der Hinterpfote. • 2. Modell: Kaolin/Carrageenan induzierte Kniegelenksentzündung bei der Ratte; Parameter: Reaktion spinaler Neurone bei Druckreizung des Knies.
Versuchsdurchführung: Bei Ratten wurde in Trapanal-Narkose der Wirbelkanal eröffnet und Rückenmarksneurone, die "Schmerzimpulse" aus dem Kniegelenk verarbeiteten, identifiziert. Nach Identifizierung wurde eine Langzeitableitung durchgeführt, in der die Aktivität der Nervenzelle vor und während der Entwicklung einer akuten Entzündung im Kniegelenk registriert wurde. Dazu wurden in einer Kontrollperiode vor Induktion der Entzündung und nach Induktion der Entzündung für mehrere Stunden die Antworten auf nicht noxische und noxische Reizung am Kniegelenk gemessen.
Die akute Entzündung wurde durch die intraartikuläre Injektion einer Kaolin und Carrageenan Suspension (etwa 150 µl) induziert. In Kontrollexperimenten wurde nur das Vehikel auf die Rückenmarksoberfläche aufgebracht, um die Entwicklung der Übererregbarkeit unter Kontrollbedingungen darzustellen. In der Regel fand diese Entwicklung der Übererregbarkeit innerhalb von 2 bis 4 Stunden statt, und sie äußerte sich in einer starken Zunahme der Antworten auf nicht noxische und noxische Reizung des Kniegelenks (Tab. 3). […] Dann wurden die Antworten der Zelle auf nichtnoxische und noxische Reizung wie in den Kontrollexperimenten weiter verfolgt.

[5] = test system: Zymosan-induzierte Pfotenentzündung bei der Maus; assay: Model 4: zymosan-induced paw inflammation, spontaneous running wheel performance, AUC; type: in vivo, C57/B6 Mäuse; settings: for AUC Mittelwert (Laufradaktivität): 7 days after Zymosan; for Statistischer Unterschied gegenüber Vehikel: Laufradaktivität AUC
Description: Das Versuchstier hat in seinem Haltungskäfig Zugang zu einem Laufrad, dessen Umdrehungen elektronisch registriert werden. Die C57/B6 Mäuse benutzen in den Nachtstunden freiwillig das Laufrad und legen im Mittel nach einer einwöchigen Gewöhnungsphase 4100 Meter/Nacht zurück. Nach Zymosan Injektion ist die nächtliche Laufstrecke verkürzt. Diese Abnahme der Laufleistung gilt als Parameter für entzündungsschmerzbedingte Funktionseinschränkung. Versuchsdurchführung: Die Laufstrecke/24 Std. wurde nach einer Eingewöhnungsphase eine Woche lang zur Bestimmung der Baseline gemessen. Dann wurde in Kurzzeitnarkose mit Isofluran dem Versuchstier 25 µl einer Suspension, die […] Zymosan enthielt, in die rechte Hinterpfote injiziert. Anschließend wurde Laufstrecke/24 Std. während der nächsten sieben Tage ermittelt. In der Auswertung wurde die Fläche unter der Kurve der Laufstreckenwerte bestimmt (AUC, Tab. 7): je kleiner die AUC, desto geringer die Laufleistung in der Woche nach Zymosan Injektion. […] Die Substanzgabe wurde am Tag 1 nach Zymosan Injektion begonnen.

[6] = 7 days, 2.8 mg/kg oral twice daily
[7] = 7 days, 25 mg/kg oral twice daily
[8] = 7 days, 75 mg/kg oral twice daily
[9] = je 30 mg/kg i.p. (x3), 0,5 h nach Zymosan-Injektion
[10] = je 30 mg/kg i.p. (x3), 1 h nach Zymosan-Injektion
[11] = je 30 mg/kg i.p. (x3), 2 h nach Zymosan-Injektion
[12] = je 30 mg/kg i.p. (x3), 3 h nach Zymosan-Injektion
[13] = je 30 mg/kg i.p. (x3), 4 h nach Zymosan-Injektion
[14] = je 30 mg/kg i.p. (x3), 5 h nach Zymosan-Injektion
[15] = je 30 mg/kg i.p. (x3), 6 h nach Zymosan-Injektion
[16] = je 30 mg/kg i.p. (x3), 7 h nach Zymosan-Injektion
[17] = je 30 mg/kg i.p. (x3), 24 h nach Zymosan-Injektion
[18] = je 30 mg/kg i.p. (x3), Baseline -0,5 h
[19] = etwa 30 µl of 10 µM Lösung on the spinal cord, 30-60 min nach K/C-Injektion
[20] = etwa 30 µl of 10 µM Lösung on the spinal cord, 60-120 min nach K/C-Injektion
[21] = etwa 30 µl of 10 µM Lösung on the spinal cord, 120-180 min nach K/C-Injektion
[22] = etwa 30 µl of 10 µM Lösung on the spinal cord, 180-240 min nach K/C-Injektion
[23] = etwa 30 µl of 10 µM Lösung on the spinal cord, Baseline

## CNc1nccc(-c2cc3cc(C(=O)N[C@@H](CN(c4ccccc4)c4ccccc4)c4n[nH]c(=O)o4)ccc3[nH]2)n1 [Verbindung 13, 2-(2-Methylamin-pyrimidin-4-yl)-1H-indol-5-carbonsäure [(S)-2-diphenylamin-1-(5-oxo-4,5-dihydro-[1,3,4]oxadiazol-2-yl)-ethyl]-amid]
[1]; 7-day study, twice daily
  thermische Hyperalgesie, comparison with Paracetamol: stärker als Paracetamol
[1]; 14-day study, high dose (25 mg/kg)
  Effekte on thermische Hyperalgesie in der hohen Dosierung: gleich stark
[1]; 168 h, 7-day study, oral twice daily, read-out: Einzeldosis from which Therapieerfolg signifikant gegenüber der Vehikelgruppe
  minimal effective dose: ≥ 8.3 mg/kg
[1]; [6]
  Statistischer Unterschied gegenüber Vehikel: nein
[1]; [7]
  Statistischer Unterschied gegenüber Vehikel: ja
[1]; [8]
  Statistischer Unterschied gegenüber Vehikel: ja
[1]; 14 days, 25 mg/kg twice daily
  Statistischer Unterschied gegenüber Vehikel: ja
[1]; 7 days after Zymosan, 2.8 mg/kg oral twice daily
  AUC Mittelwert [Maß für Hyperalgesie]: 40.4
[1]; 7 days after Zymosan, 25 mg/kg oral twice daily
  AUC Mittelwert [Maß für Hyperalgesie]: 19.4
[1]; 7 days after Zymosan, 75 mg/kg oral twice daily
  AUC Mittelwert [Maß für Hyperalgesie]: 17.4
[1]; 14 days after Zymosan, 25 mg/kg twice daily
  AUC Mittelwert [Maß für Hyperalgesie]: 47.6
[2]; comparison data from an earlier study
  thermische Hyperalgesie, comparison with Diclofenac: erheblich stärker reduziert als das NSAID Diclofenac
[2]; je 30 mg/kg i.p. (x3)
  thermische Hyperalgesie, duration of effect nach der letzten Substanzgabe: > 18 Std.
[2]; [9]
  Veränderung der Pfotenwegziehzeit (%) Mittelwert: -16,6%
[2]; [10]
  Veränderung der Pfotenwegziehzeit (%) Mittelwert: -31,3%
[2]; [11]
  Veränderung der Pfotenwegziehzeit (%) Mittelwert: -30,2%
[2]; [12]
  Veränderung der Pfotenwegziehzeit (%) Mittelwert: -15,3%
[2]; [13]
  Veränderung der Pfotenwegziehzeit (%) Mittelwert: -16,0%
[2]; [14]
  Veränderung der Pfotenwegziehzeit (%) Mittelwert: -9,7%
[2]; [15]
  Veränderung der Pfotenwegziehzeit (%) Mittelwert: 5,0%
[2]; [16]
  Veränderung der Pfotenwegziehzeit (%) Mittelwert: 3,4%
[2]; [17]
  Veränderung der Pfotenwegziehzeit (%) Mittelwert: -3,8%
[2]; [18]
  Veränderung der Pfotenwegziehzeit (%) Mittelwert: 0,0%
[2]; je 30 mg/kg i.p., after the third dose
  thermische Hyperalgesie, Seitenunterschied in der Pfotenwegziehzeit: überhaupt kein Seitenunterschied in der Pfotenwegziehzeit mehr zu finden
[2]; je 30 mg/kg i.p., from two hours after Zymosan Injektion
  thermische Hyperalgesie compared with Kontrollgruppe: geringer ausgeprägt als in der Kontrollgruppe
[3]; je 30 mg/kg i.p. (x3)
  mechanische Hyperalgesie: signifikant reduziert
  mechanische Hyperalgesie, duration of effect nach der letzten Substanzgabe: ≥ 18 Std.
  mechanische Hyperalgesie, onset of effect nach Zymosan Injektion: 1 Stunde
[3]; [9]
  Veränderung der Pfotenwegziehschwelle (%) Mittelwert: -37,4%
[3]; [10]
  Veränderung der Pfotenwegziehschwelle (%) Mittelwert: -43,1%
[3]; [11]
  Veränderung der Pfotenwegziehschwelle (%) Mittelwert: -36,0%
[3]; [12]
  Veränderung der Pfotenwegziehschwelle (%) Mittelwert: -35,1%
[3]; [13]
  Veränderung der Pfotenwegziehschwelle (%) Mittelwert: -46,7%
[3]; [14]
  Veränderung der Pfotenwegziehschwelle (%) Mittelwert: -40,6%
[3]; [15]
  Veränderung der Pfotenwegziehschwelle (%) Mittelwert: -33,1%
[3]; [16]
  Veränderung der Pfotenwegziehschwelle (%) Mittelwert: -44,7%
[3]; [17]
  Veränderung der Pfotenwegziehschwelle (%) Mittelwert: -9,7%
[3]; [18]
  Veränderung der Pfotenwegziehschwelle (%) Mittelwert: 0,0%
[4]; comparison with published data of an earlier study
  Wirkung auf die Antworten auf noxische Kniegelenksstimulation, comparison with Indomethacin: insgesamt stärker ausgeprägt als die Wirkung von Indomethacin
[4]; etwa 30 µl of 10 µM Lösung on the spinal cord
  Entwicklung der spinalen Übererregbarkeit gegenüber den Kontrollen: beinahe vollständig unterdrückt
[4]; [19]
  Neuronale Antworten vor und während Kniegelenksentzündung, Nicht-noxische Reizung am Kniegelenk, Mittelwert: 8,66 imp/15s
  Neuronale Antworten vor und während Kniegelenksentzündung, Noxische Reizung am Kniegelenk, Mittelwert: 62,3 imp/15s
[4]; [20]
  Neuronale Antworten vor und während Kniegelenksentzündung, Nicht-noxische Reizung am Kniegelenk, Mittelwert: 2,71 imp/15s
  Neuronale Antworten vor und während Kniegelenksentzündung, Noxische Reizung am Kniegelenk, Mittelwert: 26,9 imp/15s
[4]; [21]
  Neuronale Antworten vor und während Kniegelenksentzündung, Nicht-noxische Reizung am Kniegelenk, Mittelwert: 11,16 imp/15s
  Neuronale Antworten vor und während Kniegelenksentzündung, Noxische Reizung am Kniegelenk, Mittelwert: 8,5 imp/15s
[4]; [22]
  Neuronale Antworten vor und während Kniegelenksentzündung, Nicht-noxische Reizung am Kniegelenk, Mittelwert: 39,78 imp/15s
  Neuronale Antworten vor und während Kniegelenksentzündung, Noxische Reizung am Kniegelenk, Mittelwert: 19,5 imp/15s
[4]; [23]
  Neuronale Antworten vor und während Kniegelenksentzündung, Nicht-noxische Reizung am Kniegelenk, Mittelwert: 0,92 imp/15s
  Neuronale Antworten vor und während Kniegelenksentzündung, Noxische Reizung am Kniegelenk, Mittelwert: 0,8 imp/15s
[5]; 2.8 mg/kg oral twice daily
  AUC Mittelwert (Laufradaktivität): 131.1
[5]; 25 mg/kg oral twice daily
  AUC Mittelwert (Laufradaktivität): 216.7
[5]; 75 mg/kg oral twice daily
  AUC Mittelwert (Laufradaktivität): 251.7
[5]; 7 days, twice daily
  Laufleistung nach Zymosan Injektion gegenüber der Vehikelgruppe: dosisabhängige Steigerung der Laufstrecke
[5]; [6]
  Statistischer Unterschied gegenüber Vehikel: nein
[5]; [7]
  Statistischer Unterschied gegenüber Vehikel: ja
[5]; [8]
  Statistischer Unterschied gegenüber Vehikel: ja
